Test results published in US9982011B2, “Legumain activated doxorubicin derivative as well as preparation method and application thereof” (priority 2012, dated 2018).
Entries after “also recorded” stand apart in the source; their conditions may differ.

Experiments:
[1] = tested on: 4T1 cells; test: Tumor growth inhibition in 4T1 breast cancer model in BALB/C mice; format: in vivo
Excerpt: Test purpose: to investigate the anti-tumor efficacy of Succinyl-AANL-DOX (SEQ ID NO: 2) and EMC-AANL-DOX (SEQ ID NO: 2) in a 4T1 breast cancer treatment model from BALB/C mice.
Treatment drug: Succinyl-AANL-DOX (SEQ ID NO: 2) and EMC-AANL-DOX (SEQ ID NO: 2) injections, and doxorubicin hydrochloride injection, diluted to corresponding concentrations by physiological saline when testing.
1) 4T1 cells were purchased from American type culture collection (ATCC) and identified according the specification provided by ATCC.
2) Production of tumor. 10^6 4T1 cells were subcutaneously injected to the back of the BALB/C mice. Mice were randomly grouped after the diameter of the tumor reached about 0.3 cm to 0.4 cm. Then treatment began.
Succinyl-AANL-DOX (SEQ ID NO: 2), Legubicin and EMC-AANL-DOX (SEQ ID NO: 2) were intraperitoneally injected. The dose of Succinyl-AANL-DOX (SEQ ID NO: 2), Legubicin and EMC-AANL-DOX (SEQ ID NO: 2) were all 28.16 μmol/kg. The dose of doxorubicin hydrochloride was 3.448 μmol/kg. The control group was administered with physiological saline. The drugs were administered twice weekly for three weeks.
4) Results and discussion.

[2] = target: serum albumin (Mus musculus, UniProt P07724); details: blood taken 10 minutes after intravenous tail injection
Protocol: Bloods were taken after 10 minutes and centrifuged to obtain serum. The proteins in the serum were precipitated by 70% ethanol.

[3] = Metabolic half-life in mice blood

Sequence of serum albumin (P07724 25-608): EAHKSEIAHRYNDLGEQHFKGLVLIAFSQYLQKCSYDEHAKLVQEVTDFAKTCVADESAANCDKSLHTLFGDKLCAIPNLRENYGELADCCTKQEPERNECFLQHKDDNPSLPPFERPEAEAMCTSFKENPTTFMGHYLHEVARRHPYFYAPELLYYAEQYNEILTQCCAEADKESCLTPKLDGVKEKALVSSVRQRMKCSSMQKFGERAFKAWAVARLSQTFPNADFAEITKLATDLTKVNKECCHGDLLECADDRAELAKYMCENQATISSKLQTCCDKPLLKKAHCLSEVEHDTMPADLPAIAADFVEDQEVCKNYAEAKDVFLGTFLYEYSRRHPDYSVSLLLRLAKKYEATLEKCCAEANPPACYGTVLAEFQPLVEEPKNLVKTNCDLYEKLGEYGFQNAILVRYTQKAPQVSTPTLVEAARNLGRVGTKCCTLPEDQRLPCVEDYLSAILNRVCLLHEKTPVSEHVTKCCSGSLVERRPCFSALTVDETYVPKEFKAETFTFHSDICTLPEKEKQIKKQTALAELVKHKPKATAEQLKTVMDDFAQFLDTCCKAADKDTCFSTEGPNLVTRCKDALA

In the case of `COc1cccc2c1C(=O)c1c(O)c3c(c(O)c1C2=O)CC(O)(C(=O)CO)CC3OC1CC(NC(=O)C(CC(C)C)NC(=O)C(CC(N)=O)NC(=O)C(C)NC(=O)C(C)NC(=O)CCCCCN2C(=O)C=CC2=O)C(O)C(C)O1` (stereo not shown) [Example S1, EMC-AANL-Doxorubicin], the “Inhibitory effect on tumor growth (in words)” value ([1]; 28.16 μmol/kg i.p. twice weekly for three weeks, compared with Succinyl-AANL-DOX, Dox and BOC-AANL-DOX, FIG. 5) is reported as “could significantly improve the inhibitory effect on tumor growth; also recorded: exhibits a superior inhibitory effect on tumor growth”, the “Inhibitory effect on tumor growth relative to Succinyl-AANL-DOX” value ([1]; 4T1 breast cancer model, etc.) is reported as 4-5 folds and the “Binding to serum albumin / plasma protein in blood” value [2] is reported as “most of S1 could bind to serum albumin and thus precipitated; also recorded: most of S1 bound to the plasma protein”. For the same compound, the “Metabolic half-life in the mice blood” value [3] was “above 74 hours”.
